For one data set, the target named is T1, CYP2C8 (Homo sapiens, UniProt P10632).
T1 sequence (P10632 1-490): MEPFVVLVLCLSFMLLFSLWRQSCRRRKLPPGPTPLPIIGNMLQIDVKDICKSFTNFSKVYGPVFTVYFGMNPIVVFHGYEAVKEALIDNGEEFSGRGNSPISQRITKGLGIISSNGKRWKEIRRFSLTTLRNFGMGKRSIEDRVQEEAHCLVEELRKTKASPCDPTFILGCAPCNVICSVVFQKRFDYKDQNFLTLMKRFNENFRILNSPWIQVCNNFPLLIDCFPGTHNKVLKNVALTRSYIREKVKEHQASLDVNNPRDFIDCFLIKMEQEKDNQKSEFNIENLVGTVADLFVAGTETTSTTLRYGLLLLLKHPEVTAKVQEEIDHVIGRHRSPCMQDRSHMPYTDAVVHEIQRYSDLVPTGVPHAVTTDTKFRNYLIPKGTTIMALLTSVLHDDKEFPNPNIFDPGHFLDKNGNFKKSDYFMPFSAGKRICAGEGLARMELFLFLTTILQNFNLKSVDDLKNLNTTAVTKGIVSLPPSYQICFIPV
Briefly: CYP2C8 activity inhibition assay in human liver microsomes (paclitaxel hydroxylation, LC-MS/MS). The note with it: for IC50: IC50 CYP2C8, HLM, paclitaxel 5 µM.

Another data set concerns the target CYP3A4 (Homo sapiens, UniProt P08684). Briefly: CYP3A4 activity inhibition assay in human liver microsomes (testosterone 6β-hydroxylation, LC-MS/MS).
Data set [1] addresses T2, CYP2D6 (Homo sapiens, UniProt P10635). The note with it: HLM; as compared to quinidine.
For data set [2], the target named is T2, CYP2D6. Briefly: biochemical.

Chain of CYP3A4 (P08684 whole entry): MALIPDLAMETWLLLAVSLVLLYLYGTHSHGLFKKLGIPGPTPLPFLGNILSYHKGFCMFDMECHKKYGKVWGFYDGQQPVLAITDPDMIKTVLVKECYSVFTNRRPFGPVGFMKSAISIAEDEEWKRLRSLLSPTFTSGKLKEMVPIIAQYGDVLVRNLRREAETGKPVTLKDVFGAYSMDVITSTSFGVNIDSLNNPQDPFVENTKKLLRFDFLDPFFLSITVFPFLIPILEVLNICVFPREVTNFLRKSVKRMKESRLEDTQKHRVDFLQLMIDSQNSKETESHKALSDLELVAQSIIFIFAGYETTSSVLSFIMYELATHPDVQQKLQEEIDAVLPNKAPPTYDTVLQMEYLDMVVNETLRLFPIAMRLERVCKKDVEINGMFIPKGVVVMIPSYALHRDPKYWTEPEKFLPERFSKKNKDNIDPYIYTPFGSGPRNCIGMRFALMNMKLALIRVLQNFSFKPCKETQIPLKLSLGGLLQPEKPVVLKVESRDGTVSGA
T2 sequence (P10635 whole entry): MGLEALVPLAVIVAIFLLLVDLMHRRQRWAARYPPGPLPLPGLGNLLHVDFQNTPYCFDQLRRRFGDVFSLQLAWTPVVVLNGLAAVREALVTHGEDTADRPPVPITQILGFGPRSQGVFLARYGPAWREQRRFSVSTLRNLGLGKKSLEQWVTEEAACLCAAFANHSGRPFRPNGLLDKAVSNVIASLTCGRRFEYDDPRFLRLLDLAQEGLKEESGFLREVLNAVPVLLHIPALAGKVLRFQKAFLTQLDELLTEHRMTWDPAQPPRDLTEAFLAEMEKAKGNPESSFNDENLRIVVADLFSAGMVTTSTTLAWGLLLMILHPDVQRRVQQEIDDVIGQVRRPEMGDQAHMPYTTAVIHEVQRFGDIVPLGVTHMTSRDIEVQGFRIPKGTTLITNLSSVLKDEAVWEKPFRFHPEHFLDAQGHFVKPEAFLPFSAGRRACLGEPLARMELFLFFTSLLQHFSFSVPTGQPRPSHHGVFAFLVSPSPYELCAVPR

Take `CN(CCOc1ccc(CC2SC(=O)NC2=O)cc1)c1ccccn1` (centres unmarked) [Rosiglitazone, rosiglitazone]: the Ki (as a rule, a measure of affinity in units of concentration, obtained from inhibition or displacement) on CYP2C8 came to 1.6 µM. Besides, on CYP2C8 (positive control), the IC50 (in general, the concentration at which inhibition is half-maximal) amounted to 3.28 µM.

On to `CCC(CC)COC(=O)[C@H](C)N[P@](=O)(OC[C@H]1O[C@@](C#N)(c2ccc3c(N)ncnn23)[C@H](O)[C@@H]1O)Oc1ccccc1` [Remdesivir, remdesivir], for which the IC50 at CYP3A4 is 0.483 µM; at CYP2C8 (remdesivir), 0.268 µM; on CYP2D6 [2] it was 0.543 µM. Moreover, the Ki at CYP3A4 is 0.241 µM; at CYP2C8, 0.134 µM; at CYP2D6 [2], 0.271 µM. Besides, on CYP3A4 (HLM, as compared to ketoconazole), the “inhibition of CYP3A4 (in words)” value is on record as “moderate/weak inhibition”. Further, the “inhibition of CYP2C8 (in words)” value at CYP2C8 (HLM, remdesivir as compared to rosiglitazone) was “weak inhibition”. The “inhibition of CYP2D6 (in words)” value on CYP2D6 [1] is on record as “weak inhibition”.
